Data taken from ChEMBL document CHEMBL3044818, “Fungicide resistance status in French populations of the wheat eyespot fungi Oculimacula acuformis and Oculimacula yallundae” (Pest Manag Sci, 2013).
≈ marks a conversion by molar mass, not a printed value.

How the values were obtained:
Oculimacula acuformis [1] = assay: Fungicidal activity against Oculimacula acuformis assessed as inhibition of mycelial growth in presence of 10 g glucose incubated at 19 degC in dark for 4 weeks; format: functional, organism-based; conditions: 672 h
Oculimacula yallundae [2] = assay: Resistance index, ratio of EC50 for sterol 14alpha-demethylation inhibitor-resistant Oculimacula yallundae TriR1 to EC50 for wild type Oculimacula yallundae TriS by mycelial growth inhibition assay; format: functional
Oculimacula yallundae [3] = assay: Resistance index, ratio of EC50 for prochloraz-resistant Oculimacula yallundae isolate ProR2 to EC50 for prochloraz-susceptible Oculimacula yallundae isolate ProS by germ tube elongation inhibition assay; format: functional
Oculimacula yallundae [4] = assay: Fungicidal activity against Oculimacula yallundae assessed as inhibition of mycelial growth in presence of 10 g glucose incubated at 19 degC in dark for 4 weeks; format: functional, organism-based; conditions: 672 h
Oculimacula yallundae [5] = assay: Fungicidal activity against prochloraz-susceptible Oculimacula yallundae isolate ProS assessed as inhibition of germ tube elongation incubated at 19 degC in dark for 48 hr; format: functional, organism-based
Oculimacula acuformis [6] = assay: Fungicidal activity against Oculimacula acuformis assessed as inhibition of germ tube elongation incubated at 19 degC in dark for 48 hr; format: functional, organism-based
Oculimacula yallundae [7] = assay: Resistance index, ratio of EC50 for sterol 14alpha-demethylation inhibitor-resistant Oculimacula yallundae TriR2 to EC50 for sterol 14alpha-demethylation inhibitor-resistant Oculimacula yallundae TriR1 by mycelial growth inhibition assay; format: functional
Oculimacula yallundae [8] = assay: Resistance index, ratio of EC50 for sterol 14alpha-demethylation inhibitor-resistant Oculimacula yallundae MDR to EC50 for wild type Oculimacula yallundae TriS by germ tube elongation assay; format: functional
[9] = Selectivity index, ratio of EC50 for Oculimacula acuformis to EC50 for Oculimacula yallundae in presence of 10 g glucose by mycelial growth inhibition assay; format: functional
Oculimacula yallundae [10] = assay: Fungicidal activity against prochloraz-susceptible Oculimacula yallundae isolate ProS assessed as inhibition of mycelial growth in presence of 10 g glucose incubated at 19 degC in dark for 4 weeks; format: functional, organism-based; conditions: 672 h
Oculimacula yallundae [11] = assay: Fungicidal activity against Oculimacula yallundae assessed as inhibition of germ tube elongation incubated at 19 degC in dark for 48 hr; format: functional, organism-based
Oculimacula yallundae [12] = assay: Resistance index, ratio of EC50 for prochloraz-resistant Oculimacula yallundae isolate ProR1 to EC50 for prochloraz-susceptible Oculimacula yallundae isolate ProS by mycelial growth inhibition assay; format: functional
Oculimacula yallundae [13] = assay: Resistance index, ratio of EC50 for sterol 14alpha-demethylation inhibitor-resistant Oculimacula yallundae TriR2 to EC50 for sterol 14alpha-demethylation inhibitor-resistant Oculimacula yallundae TriR1 by germ tube elongation assay; format: functional
Oculimacula yallundae [14] = assay: Resistance index, ratio of EC50 for prochloraz-resistant Oculimacula yallundae isolate ProR1 to EC50 for prochloraz-susceptible Oculimacula yallundae isolate ProS by germ tube elongation inhibition assay; format: functional
Oculimacula yallundae [15] = assay: Resistance index, ratio of EC50 for sterol 14alpha-demethylation inhibitor-resistant Oculimacula yallundae MDR to EC50 for wild type Oculimacula yallundae TriS by mycelial growth inhibition assay; format: functional
Oculimacula yallundae [16] = assay: Resistance index, ratio of EC50 for prochloraz-resistant Oculimacula yallundae isolate ProR2 to EC50 for prochloraz-susceptible Oculimacula yallundae isolate ProS by mycelial growth inhibition assay; format: functional
Oculimacula yallundae [17] = assay: Resistance index, ratio of EC50 for sterol 14alpha-demethylation inhibitor-resistant Oculimacula yallundae TriR2 to EC50 for wild type Oculimacula yallundae TriS by mycelial growth inhibition assay; format: functional
[18] = Selectivity index, ratio of EC50 for Oculimacula acuformis to EC50 for Oculimacula yallundae by germ tube elongation inhibition assay; format: functional
Oculimacula yallundae [19] = assay: Resistance index, ratio of EC50 for sterol 14alpha-demethylation inhibitor-resistant Oculimacula yallundae MDR to EC50 for sterol 14alpha-demethylation inhibitor-resistant Oculimacula yallundae TriR1 by mycelial growth inhibition assay; format: functional
Oculimacula yallundae [20] = assay: Resistance index, ratio of EC50 for sterol 14alpha-demethylation inhibitor-resistant Oculimacula yallundae TriR1 to EC50 for wild type Oculimacula yallundae TriS by germ tube elongation assay; format: functional
Oculimacula yallundae [21] = assay: Resistance index, ratio of EC50 for sterol 14alpha-demethylation inhibitor-resistant Oculimacula yallundae MDR to EC50 for sterol 14alpha-demethylation inhibitor-resistant Oculimacula yallundae TriR1 by germ tube elongation assay; format: functional
Oculimacula yallundae [22] = assay: Resistance index, ratio of EC50 for sterol 14alpha-demethylation inhibitor-resistant Oculimacula yallundae TriR2 to EC50 for wild type Oculimacula yallundae TriS by germ tube elongation assay; format: functional

SMILES	EC50 (Oculimacula acuformis [1]) [µg/mL]	Ratio EC50 (Oculimacula yallundae [2])	Ratio EC50 (Oculimacula yallundae [3])	EC50 (Oculimacula yallundae [4]) [µg/mL]	EC50 (Oculimacula yallundae [5]) [µg/mL]	EC50 (Oculimacula acuformis [6]) [µg/mL]	Ratio EC50 (Oculimacula yallundae [7])	Ratio EC50 (Oculimacula yallundae [8])	Ratio EC50 [9]	EC50 (Oculimacula yallundae [11]) [µg/mL]	Ratio EC50 (Oculimacula yallundae [13])	Ratio EC50 (Oculimacula yallundae [14])	Ratio EC50 (Oculimacula yallundae [15])	Ratio EC50 (Oculimacula yallundae [17])	Ratio EC50 [18]	Ratio EC50 (Oculimacula yallundae [19])	Ratio EC50 (Oculimacula yallundae [20])	Ratio EC50 (Oculimacula yallundae [21])	Ratio EC50 (Oculimacula yallundae [22])	other results
Fc1ccc([C@]2(Cn3cncn3)O[C@H]2c2ccccc2Cl)cc1 (relative stereo) [EPOXICONAZOLE]	0.3	3.3	3	0.15	0.3 (≈ 0.91 µM)	0.3 (≈ 0.91 µM)	1	150	2	0.02 (≈ 0.0606 µM)	2	2	6.7	3.3	15	2	30	5	60	EC50 (Oculimacula yallundae [10]): 0.3 µg/mL; Ratio EC50 (Oculimacula yallundae [12]): 3.3; Ratio EC50 (Oculimacula yallundae [16]): 5
Clc1ccc(C2(Cn3cncn3)CC(Br)CO2)c(Cl)c1 (centres undefined) [BROMUCONAZOLE]	1.5	5	1	0.2	0.8 (≈ 2.12 µM)	0.8 (≈ 2.12 µM)	2	83	8.5	0.03 (≈ 0.0796 µM)	1.2	0.6	10	10	27	2	33	2.5	40	EC50 (Oculimacula yallundae [10]): 1.5 µg/mL; Ratio EC50 (Oculimacula yallundae [12]): 0.3; Ratio EC50 (Oculimacula yallundae [16]): 0.5
COC(=O)Nc1nc2ccccc2[nH]1 [CARBENDAZIM]	0.04			0.03		0.04 (≈ 0.209 µM)			1.3	0.04 (≈ 0.209 µM)					1					
CC1=C(C(=O)Nc2ccccc2)SCCO1 [CARBOXIN]								1.4		2.5 (≈ 10.6 µM)	1.2						1	1.4	1.2	
CC(C1CC1)C(O)(Cn1cncn1)c1ccc(Cl)cc1 (centres undefined) [CYPROCONAZOLE]	12	23	0.8	0.3	3 (≈ 10.3 µM)	3 (≈ 10.3 µM)	0.7	160	40	0.05 (≈ 0.171 µM)	0.6	0.5	20	17	60	0.9	160	1	100	
Cc1cc(C2CC2)nc(Nc2ccccc2)n1 [CYPRODINIL]	0.06			0.5		0.004 (≈ 0.0178 µM)		13	0.12	0.004 (≈ 0.0178 µM)	1				1		1	13	1	
CC1(C(=O)Nc2ccc(O)c(Cl)c2Cl)CCCCC1 [FENHEXAMID]	0.32	1.5		0.4		0.05 (≈ 0.165 µM)	0.8	33	0.8	0.06 (≈ 0.199 µM)	1		2.5	1.2	0.8	1.7	1.2	28	1.2	
CC(Cc1ccc(C(C)(C)C)cc1)CN1C[C@@H](C)O[C@@H](C)C1 (some centres undefined) [FENPROPIMORPH]	1.8			15		0.06 (≈ 0.198 µM)			0.12	0.4 (≈ 1.32 µM)					0.15					
C[Si](Cn1cncn1)(c1ccc(F)cc1)c1ccc(F)cc1 [FLUSILAZOLE]	0.4		5	0.06	0.2 (≈ 0.634 µM)	0.2 (≈ 0.634 µM)			6.7	0.008 (≈ 0.0254 µM)		2.5			25					EC50 (Oculimacula yallundae [10]): 0.4 µg/mL; Ratio EC50 (Oculimacula yallundae [12]): 5; Ratio EC50 (Oculimacula yallundae [16]): 6.2
COc1cc(C)c(C(=O)c2c(OC)ccc(Br)c2C)c(OC)c1OC [METRAFENONE]	0.08	1		0.8		> 25	1.3		0.1	> 25			1.1	1.3		1.1				
CC(C)CC(C)c1sccc1NC(=O)c1cn(C)nc1C(F)(F)F (centres undefined) [PENTHIOPYRAD]								12		0.02 (≈ 0.0556 µM)	1						1	12	1	
CCCN(CCOc1c(Cl)cc(Cl)cc1Cl)C(=O)n1ccnc1 [PROCHLORAZ]	0.04	1.5	75	0.05	0.004 (≈ 0.0106 µM)	0.004 (≈ 0.0106 µM)	20	100	0.8	0.005 (≈ 0.0133 µM)	171	63	3	30	0.8	2	1.4	71	240	EC50 (Oculimacula yallundae [10]): 0.04 µg/mL; Ratio EC50 (Oculimacula yallundae [12]): 25; Ratio EC50 (Oculimacula yallundae [16]): 25
Cc1cc(C)nc(Nc2ccccc2)n1 [PYRIMETHANIL]								12		0.1 (≈ 0.502 µM)	1.2						1	12	1.2	
CC(C)(C)C(O)(CCc1ccc(Cl)cc1)Cn1cncn1 (centres undefined) [TEBUCONAZOLE]	4	20	5	0.2	0.5 (≈ 1.62 µM)	0.5 (≈ 1.62 µM)	1.5	267	20	0.03 (≈ 0.0975 µM)	1.5	3	25	30	17	1.3	67	4	100	
CN(C/C=C/C#CC(C)(C)C)Cc1cccc2ccccc12 [TERBINAFINE]	0.25			0.3		0.01 (≈ 0.0343 µM)			0.8	0.008 (≈ 0.0275 µM)					1.3					
Cc1cccc(N(C)C(=S)Oc2ccc3ccccc3c2)c1 [TOLNAFTATE]								>30		0.3 (≈ 0.976 µM)	0.8						1.3	>25	1	
CCCOC/C(=N\c1ccc(Cl)cc1C(F)(F)F)n1ccnc1 [TRIFLUMIZOLE]	> 25		0.8	0.8	9 (≈ 26 µM)	9 (≈ 26 µM)		243	> 30	0.07 (≈ 0.202 µM)	0.3	0.1			129		214	1.1	71	
